In the SangsterLogP compilation one finds logP data, which are given here for 14 compounds.

For orientation: logP means the decadic logarithm of the partition coefficient of the neutral form, usually between octanol and water.

With `CCCC(=NOCC)C1C(=O)CC2(CCCCC2C)OC1=O` (centres undefined), the logP is 3.9.
For the compound `CCCC(=NOCC)C1C(=O)CC2(CCSCC2)OC1=O` (centres undefined), the logP was 2.9.
`CCCC(=NOCC)C1C(=O)CC2(CC(C)CC(C)C2)OC1=O` (centres undefined) returned a lipophilicity (logP) of 4.48.
Under `CCCC(=NOCC)C1C(=O)CC2(C=CCCC2)OC1=O` (centres undefined) stands 3.2.
Take `CCCC(=NOCC)C1C(=O)CC2(CCC(C)CC2)OC1=O` (centres undefined): the logP was 4.07.
In the case of `CCCC(=NOCC)C1C(=O)CC2(CCCc3ccccc32)OC1=O` (centres undefined), the logP came out at 5.
`CCCC(=NOCC)C1C(=O)CC2(CCC(C(C)(C)C)CC2)OC1=O` (centres undefined): the logP worked out at 5.3.
Under `CCCC(=NOCC)C1C(=O)CC2(CCC(C)C2)OC1=O` (centres undefined) stands 3.66.
Under `CCCC(=NOCC)C1C(=O)CC2(CCCC2)OC1=O` (centres undefined) stands 3.22; under `CCCC(=NOCC)C1C(=O)CC(C)(C2CC2)OC1=O` (centres undefined), 3.28; under `CCCC(=NOCC)C1C(=O)CC2(CCCCC2)OC1=O` (centres undefined), 3.62.
In turn, `CC=C(C)C1(C)CC(=O)C(C(CCC)=NOCC)C(=O)O1` (centres undefined) yielded a logP of 3.4.
Under `CCCC(=NOCC)C1C(=O)CC(c2ccccc2)(c2ccccc2)OC1=O` (centres undefined) stands 4.75.
The compound `CCCC(=NOCC)C1C(=O)CC2(CCC(CC)CC2)OC1=O` (centres undefined) had a logP of 4.48.
